Measurements published in publication PMC3256212, “Mechanism and Function of Drosophila capa GPCR: A Desiccation Stress-Responsive Receptor with Functional Homology to Human NeuromedinU Receptor” (PLoS ONE, 2012).
Peptide text beside a SMILES is read from it.

Experiments:
capaR (CG14575) = target: T1, capaR (CG14575) (Drosophila melanogaster, UniProt Q8ITC7); experiment: [Ca2+]i (aequorin) in capaR-transfected S2 cells; format: cell-based; details: capaR S2 cells; N = 3 (Fig. 3D); read-out: EC50, [Ca2+]i via capaR
T1 construct: The ORF of capaR was amplified from whole fly cDNA as template; expressed in transfected cells; host or cells: Drosophila S2 cells (pMT/V5-His TOPO, CuSO4 induction)
T1 sequence (Q8ITC7 1-477): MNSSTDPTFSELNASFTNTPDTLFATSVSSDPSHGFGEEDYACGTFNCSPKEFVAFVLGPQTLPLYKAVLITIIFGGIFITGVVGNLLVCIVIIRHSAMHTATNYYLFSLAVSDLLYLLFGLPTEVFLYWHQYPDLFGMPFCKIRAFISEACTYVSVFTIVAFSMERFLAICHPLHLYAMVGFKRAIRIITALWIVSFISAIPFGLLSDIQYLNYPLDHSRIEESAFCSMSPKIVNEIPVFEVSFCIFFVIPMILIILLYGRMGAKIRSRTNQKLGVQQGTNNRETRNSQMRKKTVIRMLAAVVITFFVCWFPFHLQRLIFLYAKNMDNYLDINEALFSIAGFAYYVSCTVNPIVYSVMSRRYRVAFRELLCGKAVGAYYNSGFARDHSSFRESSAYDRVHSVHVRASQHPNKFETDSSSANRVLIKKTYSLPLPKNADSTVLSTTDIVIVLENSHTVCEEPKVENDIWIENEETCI
Text: The ORF of capaR was amplified from whole fly cDNA as template using the primers 5′-[…]-3′ and 5′-[…]-3′ and cloned into pMT/V5-His TOPO vector (Invitrogen). The eYFP ORF was fused in-frame at the C-terminus of the capaR using KpnI and ApaI sites and the tagged construct was cloned into the pMT/V5-His TOPO vector.
(§1) The capa peptides Drm-capa-1 (GANMGLYAFPRVamide), Drm-capa-2 (ASGLVAFPRVamide), Drm-PK-1 (TGPSASSGLWFGPRLamide), Drm-PK-2 (SVPFKPRLamide) and hugin gamma (hugg, pQLQSNGEPAYRVRTPRL-amide) were synthesised as C-terminally amidated peptides (Biomatik Corporation, Canada). Peptides were dissolved in distilled ACN/H2O to a concentration of 1 mM and then diluted to the required working concentration in Schneider's medium (Invitrogen Inc.). Human neuromedin U-25 was purchased from Sigma. Rabbit polyclonal antibody to porcine neuromedinU-8 was purchased from Progen biotechnik (Heidelberg, Germany). Rabbit capa precursor peptide used was described in [21] Rabbit anti-peptide antibody was raised against the capaR epitope (CQQGTNNRETRNSQM) by Genosphere Biotechnologies (Paris, France) and purified on a HiTrap NHS-activated HP column (Amersham Pharmacia Bio-tech; Buckinghamshire, UK) according to the manufacturer's instructions. Immunohistochemistry was carried out as described previously. Mouse anti-GFP primary antibody (Zymed) and the antiserum to neuromedinU-8 were all diluted 1∶1000 or, in the case of the pre-immune serum, the affinity-purified capaR antibody and the antiserum to the capa precursor peptide, 1∶500. Incubations in the primary antibodies were performed overnight. A FITC-conjugated affinity-purified goat anti-mouse antibody (Jackson Immunologicals) was used in a dilution of 1∶1,000 for visualization of the mouse monoclonal anti-GFP. A Texas red-conjugated affinity-purified goat anti-rabbit antibody (Jackson Immunologicals) was used at a dilution of 1∶1,000 for visualization of the rabbit capaR antiserum.
(§2) Drosophila S2 cells, cultured under standard conditions were transiently transfected with the apoaequorin ORF [21] and a receptor ORF construct, and expression induced using CuSO4. Transfected S2 cells were harvested and incubated with 2.5 µM coelenterazine in the dark at RT for 1–2 h as previously described. 25,000 cells were then placed in 135 µl Schneider's medium supplemented with 10% FCS in a well of a white polystyrene 96-well plate (Berthold Technologies). Bioluminescence recordings were carried out using a Mithras LB940 automated 96-well plate reader (Berthold Technologies) and MikroWin software. 15 µl of each of different peptides were applied to final concentrations as required. At the end of each recording samples were disrupted by the addition of 100 µl lysis solution, and the [Ca^2+] concentrations calculated as previously described. For assays in Ca^2+-free medium, transfected cells were collected and pelleted after incubation with coelenterazine. Cell pellets were re-suspended in Ca^2+-free Schneider's medium (Invitrogen Inc.) without FCS and collected by centrifugation. The washing and pelleting procedure was repeated once more. Experiments were then carried out on 25,000 cells per sample as above. To verify whether the observed calcium signal was linked to phospholipase C (PLC) activation, S2-capaR cells were preincubated with the PLC inhibitor U73122 at concentration of 10^−3 M to 10^−8 M for 10 min. Luminometry experiments were carried out on live, intact tubules expressing a targeted transgene for cytosolic-targeted apoaequorin in either principal or stellate cells as previously described, [22]. For in vivo tubule experiments, flies of the following genotypes were used: c42aeq, capaR-GAL4, UAS-capaR, UAS-capaR RNAi, UAS-NMUR 2 and the resulting progeny from GAL4>UAS crosses.

NMU receptor 2 (NMUR 2) = target: T2, NMU receptor 2 (NMUR 2) (Homo sapiens, UniProt Q9GZQ4); experiment: [Ca2+]i (aequorin) in NMUR 2-transfected S2 cells; format: cell-based; details: NMUR 2- and apoaequorin-co-transfected S2 cells; N = 3 (Fig. 3D); read-out: EC50, [Ca2+]i via NMUR 2
T2 construct: expressed in transfected cells; host or cells: Drosophila S2 cells (pMT/V5-His TOPO)
Procedure: as §1
as §2, with “Experiments were then carried out on 25,000 cells per sample as above. To verify whether the observed calcium signal was linked to phospholipase C (PLC) activation, S2-capaR cells were preincubated with the PLC inhibitor U73122 at concentration of 10^−3 M to 10^−8 M for 10 min. Luminometry experiments were carried out on live, intact tubules expressing a targeted transgene for cytosolic-targeted apoaequorin in either principal or stellate cells as previously described, [22]. For in vivo tubule experiments, flies of the following genotypes were used: c42aeq, capaR-GAL4, UAS-capaR, UAS-capaR RNAi, UAS-NMUR 2 and the resulting progeny from GAL4>UAS crosses.” left out

T2 sequence (Q9GZQ4 whole entry): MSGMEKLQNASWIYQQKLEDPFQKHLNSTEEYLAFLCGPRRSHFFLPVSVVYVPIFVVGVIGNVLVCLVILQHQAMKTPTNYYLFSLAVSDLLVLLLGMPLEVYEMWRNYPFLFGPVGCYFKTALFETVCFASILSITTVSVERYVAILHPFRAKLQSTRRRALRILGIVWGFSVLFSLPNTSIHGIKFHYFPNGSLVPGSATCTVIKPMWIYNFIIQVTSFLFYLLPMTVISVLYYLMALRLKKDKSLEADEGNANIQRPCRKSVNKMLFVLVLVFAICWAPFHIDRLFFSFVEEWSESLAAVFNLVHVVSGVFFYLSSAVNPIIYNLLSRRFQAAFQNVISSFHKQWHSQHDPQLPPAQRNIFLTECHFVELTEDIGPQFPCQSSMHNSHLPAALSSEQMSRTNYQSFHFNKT

## CC(C)C[C@H](NC(=O)[C@H](Cc1ccccc1)NC(=O)[C@H](Cc1ccc(O)cc1)NC(=O)CNC(=O)[C@H](CCCNC(=N)N)NC(=O)[C@H](CO)NC(=O)[C@H](CCC(N)=O)NC(=O)[C@H](CO)NC(=O)[C@H](C)NC(=O)[C@H](Cc1ccccc1)NC(=O)[C@@H]1CCCN1C(=O)[C@H](CO)NC(=O)[C@H](CCC(N)=O)NC(=O)[C@H](Cc1ccccc1)NC(=O)[C@H](CCC(=O)O)NC(=O)[C@H](CCC(=O)O)NC(=O)[C@H](CC(=O)O)NC(=O)[C@@H](NC(=O)[C@H](CCCNC(=N)N)NC(=O)[C@@H](N)Cc1ccccc1)C(C)C)C(=O)N[C@@H](Cc1ccccc1)C(=O)N[C@@H](CCCNC(=N)N)C(=O)N1CCC[C@H]1C(=O)N[C@@H](CCCNC(=N)N)C(=O)N[C@@H](CC(N)=O)C(N)=O [NMU-25, reference compound] (H-FRVDEEFQSPFASQSRGYFLFRPRN-NH2)
capaR (CG14575)
  EC50: 21.8 nM
NMU receptor 2 (NMUR 2)
  EC50: 0.91 nM
